The values that follow come from ChEMBL document CHEMBL5532670, “Discovery of Tetrahydropyrazolopyrazine Derivatives as Potent and Selective MYT1 Inhibitors for the Treatment of Cancer” (J Med Chem, 2024).

The nature of data set [1]: MRT (0 to t) in CD-1 mouse at 1 mg/kg, iv measured after 24 hrs. The class given is ADME, organism-based. The note with it: in vivo.
Data set [2] can be described thus: MRT (0 to t) in Sprague-Dawley rat at 1 mg/kg, iv measured after 24 hrs. The following applies: in vivo. It is filed as ADME, organism-based.
A short description of data set [3]: AUC (0 to t) in CD-1 mouse at 5 mg/kg, po measured after 24 hrs. The class given is ADME, organism-based. The following applies: in vivo.
The nature of data set [4]: AUC (0 to t) in Sprague-Dawley rat at 5 mg/kg, po measured after 24 hrs. The following applies: in vivo. The class given is ADME, organism-based.
Data set [5] in a line: Drug concentration in mouse plasma assessed as free fraction administered for 21 days and measured after 8 hrs post dose. It is filed as ADME. The note with it: 504 h, time 21 day.
Data set [6] can be described thus: in vivo. The note with it: CD-1, mouse, iv, 1 mg/kg.
Data set [7] is described as follows: in vivo. The following applies: Sprague-Dawley, rat, iv, 1 mg/kg.
Data set [8] in a line: in vivo. The note with it: CD-1, mouse, iv, 1 mg/kg. The source holds these as a separate data set.
The nature of data set [9]: in vivo. The note with it: Sprague-Dawley, rat, iv, 1 mg/kg. The source holds these as a separate data set.
The nature of data set [10]: in vivo. The note with it: CD-1, mouse, po, 5 mg/kg.
Data set [11] can be described thus: in vivo. The note with it: CD-1, mouse, po, 5 mg/kg. This is another data set of the same source.
The nature of data set [12]: in vivo. The note with it: CD-1, mouse, po, 5 mg/kg. The source holds these as a separate data set.
The nature of data set [13]: in vivo. The note with it: Sprague-Dawley, rat, po, 5 mg/kg.
Data set [14] is described as follows: in vivo. The note with it: Sprague-Dawley, rat, po, 5 mg/kg. The source holds these as a separate data set.
Data set [15] can be described thus: in vivo. The note with it: Sprague-Dawley, rat, po, 5 mg/kg. The source holds these as a separate data set.
Data set [16] in a line: in vitro. The note with it: human, Caco-2.
The nature of data set [17]: in vitro. The note with it: mouse, hepatocytes.
A short description of data set [18]: Cmax in CD-1 mouse at 10 mg/kg, po measured after 24 hrs. The class given is ADME, organism-based. The note with it: in vivo.
The nature of data set [19]: AUC (0 to t) in CD-1 mouse at 10 mg/kg, po measured after 24 hrs. The following applies: in vivo. The class given is ADME, organism-based.
Data set [20] is described as follows: Tmax in CD-1 mouse at 10 mg/kg, po measured after 24 hrs. The class given is ADME, organism-based. The following applies: in vivo.
The nature of data set [21]: Oral bioavailability in CD-1 mouse at 10 mg/kg measured after 24 hrs. The following applies: in vivo. The class given is ADME, organism-based.
Data set [22] can be described thus: Cmax in Sprague-Dawley rat at 10 mg/kg, po measured after 24 hrs. The class given is ADME, organism-based. The note with it: in vivo.
A short description of data set [23]: Tmax in Sprague-Dawley rat at 10 mg/kg, po measured after 24 hrs. It is filed as ADME, organism-based. The note with it: in vivo.
Data set [24] can be described thus: Oral bioavailability in Sprague-Dawley rat at 10 mg/kg measured after 24 hrs. It is filed as ADME, organism-based. The following applies: in vivo.
A short description of data set [25]: Cmax in CD-1 mouse at 30 mg/kg, po measured after 24 hrs. It is filed as ADME, organism-based. The following applies: in vivo.
Data set [26] in a line: AUC (0 to t) in CD-1 mouse at 30 mg/kg, po measured after 24 hrs. The note with it: in vivo. It is filed as ADME, organism-based.
A short description of data set [27]: Tmax in CD-1 mouse at 30 mg/kg, po measured after 24 hrs. It is filed as ADME, organism-based. The note with it: in vivo.
A short description of data set [28]: Oral bioavailability in CD-1 mouse at 30 mg/kg measured after 24 hrs. It is filed as ADME, organism-based. The following applies: in vivo.
A short description of data set [29]: Cmax in Sprague-Dawley rat at 20 mg/kg, po measured after 24 hrs. It is filed as ADME, organism-based. The note with it: in vivo.
Data set [30] in a line: Tmax in Sprague-Dawley rat at 20 mg/kg, po measured after 24 hrs. The class given is ADME, organism-based. The note with it: in vivo.
A short description of data set [31]: Oral bioavailability in Sprague-Dawley rat at 20 mg/kg measured after 24 hrs. It is filed as ADME, organism-based. The following applies: in vivo.

In general, MRT last refers to a mean duration of stay, worked out from the concentration-time curve. One may read the AUC(0-t) as the area under the concentration-time curve up to a stated or last time point. Read a low AUC(0-t) as less exposure. The clearance is the volume of plasma or blood freed of the substance per unit of time. High values mean a high capacity for elimination, low ones a low capacity for elimination. One may read the Vd as the apparent volume that relates the amount in the body to the concentration in plasma or blood. As usually defined, the Cmax is the peak of the concentration-time curve. Broadly, the Tmax is the time at which the peak concentration occurs. A word on the bioavailability: it is dose-corrected exposure relative to a reference, in per cent. A low value points to poor availability. By Papp A→B is commonly meant how fast a substance crosses the layer from the apical side. Lower therefore signals slow passage. Consider `Cc1cc2c(C(N)=O)c(N)n(-c3c(C)ccc(O)c3C)c2nc1C` [LUNRESERTIB], for which the results for the MRT last at 24 h in [1] and in data set [2] were 23.4 min and 33.6 min, respectively. Besides, the figures for the area under the curve AUC(0-t) at 24 h in data set [3] and in data set [4] were 539 ng·h/mL and 1720 ng·h/mL, respectively. The “Cp(f)” value in data set [5] is 39.3 nM. Moreover, the clearance at 24 h was found to be 85.7 mL/min/kg in “in vivo [6]” and 37.6 mL/min/kg in “in vivo [7]”. The Vd at 24 h turned out to be 2.3 L/kg in the data set “in vivo [8]” and 1.4 L/kg in the data set “in vivo [9]”. Further, the Cmax at 24 h in the data set “in vivo [10]” amounted to 511 ng/mL; in the data set “in vivo [13]”, 1360 ng/mL. Further, the Tmax at 24 h in the data set “in vivo [11]” is 24 min; in the data set “in vivo [14]” it was 15 min. Moreover, the bioavailability at 24 h in the data set “in vivo [12]” was determined as 55.8%; in the data set “in vivo [15]”, 78%. The Papp A→B at 2 h in the data set “in vitro [16]” was 11 ×10⁻⁶ cm/s. Also, the CLhep predicted in the data set “in vitro [17]” is 79.4 mL/min/kg.
On to `Cc1ccc(O)c(C)c1-n1c(N)c(C(=O)N2CCn3nccc3C2)c2nc(C)c(C)nc21`, for which the MRT last at 24 h amounted to 6.6 min in data set [1] and 24.6 min in [2]. The Cmax in data set [18] worked out at 902 ng/mL; in data set [22], 1410 ng/mL. Moreover, in data set [19], the exposure AUC(0-t) at 24 h was found to be 330 ng·h/mL. Also, the Tmax in data set [20] and in [23] was 15 min each time. For the same compound, the bioavailability in data set [21] was 29.3%; in data set [24] it was 50.9%. For the same compound, the clearance at 24 h in “in vivo [6]” is 149 mL/min/kg; in “in vivo [7]”, 46.8 mL/min/kg. Further, the Vd at 24 h in “in vivo [8]” stood at 0.99 L/kg; in “in vivo [9]”, 1.2 L/kg. In addition, in the data set “in vitro [16]”, the Papp A→B at 2 h came to 1.48 ×10⁻⁶ cm/s. Moreover, the CLhep predicted in the data set “in vitro [17]” is 85.4 mL/min/kg.
On to `Cc1ccc(O)c(C)c1-n1c(N)c(C(=O)N2CCn3nccc3C2)c2nc(C3CC3)c(C)nc21`, for which the MRT last at 24 h in data set [1] was determined as 10.2 min; in data set [2], 28.2 min. The Cmax is 1800 ng/mL in [25] and 1780 ng/mL in [29]. For the same compound, in data set [26], the AUC(0-t) at 24 h amounted to 2310 ng·h/mL. The Tmax in [27] was 15 min; in data set [30], 40.2 min. In addition, the results for the bioavailability in data set [28] and in data set [31] were 55.8% and 55.9%, respectively. For the same compound, the “Cp(f)” value in [5] amounted to 60.7 nM. Further, the clearance at 24 h was 122 mL/min/kg in the data set “in vivo [6]” and 49.1 mL/min/kg in the data set “in vivo [7]”. Besides, the values for the Vd at 24 h in the data set “in vivo [8]” and in “in vivo [9]” were 1.3 L/kg and 1.4 L/kg, respectively. This compound also registered a Papp A→B at 2 h in “in vitro [16]” of 1 ×10⁻⁶ cm/s. The CLhep predicted in the data set “in vitro [17]” is 83.5 mL/min/kg.
